Measurements: PubChem BioAssay AID330 (DTP/NCI, 2004)
Several values for one entry are separate records, joined by “and”; a condition that tells them apart may be missing. Equal entries are not always repeated. Toxic doses and inconclusive results are not listed.

Tested on: P388 leukemia ip, CD2F1 mice, survival T/C
Assay: NCI In Vivo Anticancer Drug Screen. Data for tumor model P388 Leukemia (intraperitoneal) in CD2F1 (CDF1) mice
Conditions: endpoint: median survival time, higher = longer survival
Summary of the method: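 Mice carrying the transplanted tumor received test compound or vehicle. Survival was recorded in each group, and the value is the treated-group measurement divided by that of the vehicle-treated control group.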

[1] = dose: 12.5 mg/kg/injection, schedule: Q01DX009 (ip), vehicle: saline with Tween-80
[2] = dose: 25.0 mg/kg/injection, schedule: Q01DX009 (ip), vehicle: saline with Tween-80
[3] = dose: 50.0 mg/kg/injection, schedule: Q01DX009 (ip), vehicle: saline with Tween-80
[4] = dose: 100.0 mg/kg/injection, schedule: Q01DX009 (ip), vehicle: saline with Tween-80

In the case of `CC(C)NC(=O)OCc1c(COC(=O)NC(C)C)c(-c2ccc(Cl)c(Cl)c2)n2c1CCC2`, the T/C (dose: 0.58 mg/kg/injection, schedule: Q01DX009 (ip), vehicle: saline with Tween-80) is reported as 112 % of control, the T/C (dose: 1.17 mg/kg/injection, schedule: Q01DX009 (ip), vehicle: saline with Tween-80) is reported as 120 % of control and the T/C (dose: 1.5 mg/kg/injection, schedule: Q01DX001 (ip), vehicle: other) is reported as 109 % of control. For the same molecule, the T/C (dose: 1.5 mg/kg/injection, schedule: Q01DX001 (iv), vehicle: other) was 102 % of control, the T/C (dose: 1.5 mg/kg/injection, schedule: Q01DX005 (ip), vehicle: other) was 122 % of control and the T/C (dose: 1.5 mg/kg/injection, schedule: Q01DX005 (iv), vehicle: other) was 107 % of control. The T/C (dose: 1.5 mg/kg/injection, schedule: Q01DX005 (oral), vehicle: other) was 98 % of control, the T/C (dose: 1.5 mg/kg/injection, schedule: Q01DX009 (oral), vehicle: other) was 100 % of control and the T/C (dose: 1.56 mg/kg/injection, schedule: Q01DX009 (ip), vehicle: distilled water + Tween-80) was 122 % of control. The T/C (dose: 2.34 mg/kg/injection, schedule: Q01DX009 (ip), vehicle: other) was 151 % of control, the T/C (dose: 2.34 mg/kg/injection, schedule: Q01DX009 (ip), vehicle: saline with Tween-80) was 151 % of control and the T/C (dose: 3.0 mg/kg/injection, schedule: Q01DX001 (ip), vehicle: other) was 116 % of control. The T/C (dose: 3.0 mg/kg/injection, schedule: Q01DX001 (iv), vehicle: other) was 100 % of control, the T/C (dose: 3.0 mg/kg/injection, schedule: Q01DX001 (oral), vehicle: other) was 98 % of control and the T/C (dose: 3.0 mg/kg/injection, schedule: Q01DX005 (iv), vehicle: other) was 108 % of control. The T/C (dose: 3.0 mg/kg/injection, schedule: Q01DX005 (oral), vehicle: other) was 100 % of control, the T/C (dose: 3.0 mg/kg/injection, schedule: Q01DX009 (oral), vehicle: other) was 100 % of control and the T/C (dose: 3.13 mg/kg/injection, schedule: Q01DX009 (ip), vehicle: distilled water + Tween-80) was 117 % of control. For the same molecule, the T/C (dose: 4.69 mg/kg/injection, schedule: Q01DX009 (ip), vehicle: other) was 154 % of control, the T/C (dose: 4.69 mg/kg/injection, schedule: Q01DX009 (ip), vehicle: saline with Tween-80) was 150 % of control and 153 % of control and the T/C (dose: 6.0 mg/kg/injection, schedule: Q01DX001 (iv), vehicle: other) was 104 % of control. For the same molecule, the T/C (dose: 6.0 mg/kg/injection, schedule: Q01DX001 (oral), vehicle: other) was 99 % of control, the T/C (dose: 6.0 mg/kg/injection, schedule: Q01DX005 (iv), vehicle: other) was 114 % of control and the T/C (dose: 6.0 mg/kg/injection, schedule: Q01DX005 (oral), vehicle: other) was 98 % of control. For the same molecule, the T/C (dose: 6.0 mg/kg/injection, schedule: Q01DX009 (ip), vehicle: other) was 152 % of control, the T/C (dose: 6.0 mg/kg/injection, schedule: Q01DX009 (oral), vehicle: other) was 100 % of control and the T/C (dose: 6.25 mg/kg/injection, schedule: Q01DX005 (ip), vehicle: Klucel (hydroxypropylcellulose) (HPC)) was 164 % of control and 168 % of control. The T/C (dose: 6.25 mg/kg/injection, schedule: Q01DX005 (ip), vehicle: other) was 164 % of control, the T/C (dose: 6.25 mg/kg/injection, schedule: Q01DX005 (ip), vehicle: saline with Tween-80) was 151 % of control and the T/C (dose: 6.25 mg/kg/injection, schedule: Q01DX009 (ip), vehicle: other) was 155 % of control and 160 % of control. For the same molecule, the T/C (dose: 6.25 mg/kg/injection, schedule: Q01DX009 (ip), vehicle: saline with Tween-80) was 158 % of control, the T/C (dose: 6.25 mg/kg/injection, schedule: Q01DX009 (oral), vehicle: distilled water + Tween-80) was 97 % of control and the T/C (dose: 7.5 mg/kg/injection, schedule: Q01DX005 (ip), vehicle: saline with Tween-80) was 118 % of control. For the same molecule, the T/C (dose: 9.38 mg/kg/injection, schedule: Q01DX009 (ip), vehicle: other) was 154 % of control and 198 % of control, the T/C (dose: 9.38 mg/kg/injection, schedule: Q01DX009 (ip), vehicle: saline with Tween-80) was 157 % of control and the T/C (dose: 12.0 mg/kg/injection, schedule: Q01DX001 (iv), vehicle: other) was 113 % of control. The T/C (dose: 12.0 mg/kg/injection, schedule: Q01DX001 (oral), vehicle: other) was 100 % of control, the T/C (dose: 12.0 mg/kg/injection, schedule: Q01DX005 (ip), vehicle: other) was 153 % of control and the T/C (dose: 12.0 mg/kg/injection, schedule: Q01DX005 (oral), vehicle: other) was 100 % of control. The T/C (dose: 12.0 mg/kg/injection, schedule: Q01DX009 (ip), vehicle: other) was 169 % of control, the T/C (dose: 12.0 mg/kg/injection, schedule: Q01DX009 (oral), vehicle: other) was 102 % of control and the T/C (dose: 12.5 mg/kg/injection, schedule: Q01DX005 (ip), vehicle: Klucel (hydroxypropylcellulose) (HPC)) was 151 % of control and 160 % of control and 163 % of control. For the same molecule, the T/C (dose: 12.5 mg/kg/injection, schedule: Q01DX005 (ip), vehicle: other) was 177 % of control, the T/C (dose: 12.5 mg/kg/injection, schedule: Q01DX009 (ip), vehicle: other) was 165 % of control and 167 % of control and the T/C [1] was 151 % of control. For the same molecule, the T/C (dose: 12.5 mg/kg/injection, schedule: Q01DX009 (oral), vehicle: distilled water + Tween-80) was 103 % of control, the T/C (dose: 18.75 mg/kg/injection, schedule: Q01DX009 (ip), vehicle: saline with Tween-80) was 166 % of control and 167 % of control and the T/C (dose: 24.0 mg/kg/injection, schedule: Q01DX001 (oral), vehicle: other) was 100 % of control. For the same molecule, the T/C (dose: 24.0 mg/kg/injection, schedule: Q01DX005 (ip), vehicle: other) was 178 % of control, the T/C (dose: 24.0 mg/kg/injection, schedule: Q01DX005 (oral), vehicle: other) was 102 % of control and the T/C (dose: 24.0 mg/kg/injection, schedule: Q01DX009 (ip), vehicle: other) was 184 % of control. For the same molecule, the T/C (dose: 24.0 mg/kg/injection, schedule: Q01DX009 (oral), vehicle: other) was 102 % of control, the T/C (dose: 25.0 mg/kg/injection, schedule: Q01DX005 (ip), vehicle: Klucel (hydroxypropylcellulose) (HPC)) was 154 % of control and 168 % of control and 179 % of control and the T/C (dose: 25.0 mg/kg/injection, schedule: Q01DX005 (ip), vehicle: other) was 199 % of control. For the same molecule, the T/C (dose: 25.0 mg/kg/injection, schedule: Q01DX005 (ip), vehicle: saline with Tween-80) was 162 % of control, the T/C (dose: 25.0 mg/kg/injection, schedule: Q01DX009 (ip), vehicle: Klucel (hydroxypropylcellulose) (HPC)) was 168 % of control and the T/C (dose: 25.0 mg/kg/injection, schedule: Q01DX009 (ip), vehicle: other) was 100 % of control. The T/C [2] was 166 % of control, the T/C (dose: 25.0 mg/kg/injection, schedule: Q01DX009 (oral), vehicle: distilled water + Tween-80) was 92 % of control and the T/C (dose: 40.0 mg/kg/injection, schedule: Q01DX009 (ip), vehicle: Klucel (hydroxypropylcellulose) (HPC)) was 155 % of control. For the same molecule, the T/C (dose: 48.0 mg/kg/injection, schedule: Q01DX001 (ip), vehicle: other) was 168 % of control, the T/C (dose: 48.0 mg/kg/injection, schedule: Q01DX001 (oral), vehicle: other) was 100 % of control and the T/C (dose: 48.0 mg/kg/injection, schedule: Q01DX005 (ip), vehicle: other) was 174 % of control. The T/C (dose: 48.0 mg/kg/injection, schedule: Q01DX005 (oral), vehicle: other) was 107 % of control, the T/C (dose: 48.0 mg/kg/injection, schedule: Q01DX009 (ip), vehicle: other) was 106 % of control and the T/C (dose: 48.0 mg/kg/injection, schedule: Q01DX009 (oral), vehicle: other) was 119 % of control. For the same molecule, the T/C (dose: 50.0 mg/kg/injection, schedule: Q01DX005 (ip), vehicle: Klucel (hydroxypropylcellulose) (HPC)) was 163 % of control and 205 % of control and 206 % of control, the T/C (dose: 50.0 mg/kg/injection, schedule: Q01DX005 (ip), vehicle: other) was 186 % of control and the T/C (dose: 50.0 mg/kg/injection, schedule: Q01DX009 (ip), vehicle: Klucel (hydroxypropylcellulose) (HPC)) was 239 % of control. For the same molecule, the T/C [3] was 187 % of control, the T/C (dose: 50.0 mg/kg/injection, schedule: Q01DX009 (oral), vehicle: distilled water + Tween-80) was 110 % of control and the T/C (dose: 60.0 mg/kg/injection, schedule: Q01DX005 (ip), vehicle: saline with Tween-80) was 151 % of control. For the same molecule, the T/C (dose: 100.0 mg/kg/injection, schedule: Q01DX005 (ip), vehicle: saline with Tween-80) was 90 % of control, the T/C (dose: 100.0 mg/kg/injection, schedule: Q01DX009 (ip), vehicle: distilled water + Tween-80) was 113 % of control and the T/C [4] was 177 % of control. For the same molecule, the T/C (dose: 100.0 mg/kg/injection, schedule: Q01DX009 (oral), vehicle: distilled water + Tween-80) was 97 % of control, the T/C (dose: 200.0 mg/kg/injection, schedule: Q01DX005 (ip), vehicle: distilled water + Tween-80) was 104 % of control and the T/C (dose: 200.0 mg/kg/injection, schedule: Q01DX009 (oral), vehicle: distilled water + Tween-80) was 111 % of control.
With `Cc1ccc(C[N+](C)(C)C)cc1` the T/C [1] was 107 % of control, the T/C [2] was 100 % of control and the T/C [3] was 100 % of control and 106 % of control.
In the case of `Nc1[nH]nc(Nc2cccc(Cl)c2Cl)c1C(=O)c1cccs1`, the T/C [1] is reported as 101 % of control, the T/C [2] is reported as 99 % of control and the T/C [3] is reported as 99 % of control and 100 % of control. The T/C [4] was 96 % of control and the T/C (dose: 200.0 mg/kg/injection, schedule: Q01DX009 (ip), vehicle: saline with Tween-80) was 98 % of control.
